# Test results from US10550379B2, “Degron fusion constructs and methods for controlling protein production” (THE BOARD OF TRUSTEES OF THE LELAND STANFORD JUNIOR …, priority 2015, dated 2020).
# “Also recorded” adds a separate entry of the source. Peptide text beside a SMILES is read from it. * marks the point of attachment. Cbz = O=C(OCc1ccccc1)*
# Columns and labels:
# YFP-NS3pro-NS4A = assay: degradation pathway of YFP-NS3pro-NS4A in HeLa cells; type: cell-based; conditions: ASV 1 μM, 18 to 24 hours post-transfection, MG132 10 μM, bortezomib 66 nM, chloroquine 100 μM, bafilomycin-A1 200 nM
# Source text: FIGS. 8A-8D show characterization of a degron contained in NS3pro-NS4A. […] The hydrophobic N-terminal of NS4A then inserts into the membrane (right). Elements are numbered from N-terminus to C-terminus to clarify order of linkage. […] Removal of the NS3 helicase domain may expose hydrophobic residues in the helicase C-terminus and prevent cleavage at the NS3/4A site, preventing membrane insertion of NS4A. Models were generated using PDB file 1CU1. […] HeLa cells expressed YFP (FIG. 8C) or PSD95 (FIG. 8D) fused to NS3pro-NS4A (wt), or the degron-disrupted mutant (GGS). From 18 to 24 hours post-transfection, cells were treated with ASV (1 μM) and degradation inhibitors (MG, MG132 10 μM; BTZ, bortezomib 66 nM; CHQ, chloroquine 100 μM; BAF, bafilomycin-A1 200 nM). This short time window was used to avoid toxicity by degradation inhibitors. Final DMSO concentration was 0.23% (v/v) for all conditions in (FIG. 8C) and 0.33% for all conditions in (FIG. 8D).
# To determine which cellular proteolytic pathways were responsible for degrading NS3pro-NS4A fusions, we examined the effect of inhibiting proteasomes or autophagosomes. We allowed cells expressing YFP-NS3pro-NS4A to produce uncleaved YFP-NS3pro-NS4A in asunaprevir while applying inhibitors of proteasome or autophagosome degradation (FIG. 8C).
# Chemical Reagents. […]. Further serial dilutions were performed for the dose-dependency experiment. For long-term CLV and ASV incubations, drug was applied simultaneously with transfection media or 1-2 hours after transfection. MG132 (Sigma) was dissolved in DMSO for a 1000× working stock of 10 mM. Bortezomib (Adooq Biosci.) was dissolved in DMSO for a 500× working stock of 33 μM. Chloroquine diphosphate salt (Sigma) was dissolved in H2O for a 1000× (100 mM) working stock. Bafilomycin A1 (Santa Cruz) was dissolved in DMSO for a 500× (100 μM) working stock. Azidohomoalanine (AHA) (Click-IT, Invitrogen) was dissolved in DMSO for a 500× working stock of 25 mM. Alkyne-PEG4-biotin (Invitrogen) was dissolved in DMSO for a 100× working stock of 4 mM. L-cystine dihydrochloride (Sigma) was dissolved in H2O pH 2.0 for a working stock of 0.1 M.
# SMASh-YFP or YFP-SMASh [1] = assay: drug repression of SMASh-tagged YFP in budding yeast; type: cell-based, S. cerevisiae; conditions: 24 hours, SD media
# Source text: When expressed in yeast from an episomal gene, we found the C-terminal SMASh tag with a protease cleavage site of sequence DEMEEC/S was able to confer drug repression on YFP expression, similarly to its performance in mammalian cells (FIG. 5A, lane 4-6). However, the N-terminal SMASh tag and fast-cleaving site (EDVVPC/S) used in mammalian cells allowed leaky expression of YFP in yeast in the presence of drug (data not shown). […] . […] To the best of our knowledge, SMASh is the first method that uses a single genetic element to impose drug control over the expression of specific proteins in yeast.
# Yeast Strains and Cell Growth.
# SMASh-YFP or YFP-SMASh [2] = assay: SMASh tag at either terminus of YFP in HEK293 cells; type: cell-based; conditions: HEK293, 24 hours
# Source text: NS3 protease sequence (light gray), sequence derived from NS3 helicase (dark gray), and sequence derived from NS4A (medium gray) are shown. NS5A/5B-based protease substrate site is in dark gray. […] DMSO was used as vehicle control. β-actin served as a loading control. […] Scale bar, […].
# [3] = system: panel of cellular proteases; conditions: 1.5 μM; cited from earlier work
# [4] = in vivo, po; cited from earlier work
# YSH1-SMASh yeast = assay: yeast spotting assay, YSH1-SMASh knock-in; conditions: ASV (10 μM), 48 hours
# SEC14-SMASh yeast = assay: yeast spotting assay, SEC14-SMASh knock-in; conditions: ASV (3 μM), 48 hours
# MeV-EGFP-P-SMASh = assay: drug control of MeV-EGFP-P-SMASh in infected Vero cells
# MeV-EGFP = assay: drug effect on parental MeV-EGFP in infected Vero cells; conditions: presence of asunaprevir, 72 hours
# SMASh-Arc = assay: optimization of N-terminal SMASh tag on Arc in HEK293 cells, immunoblot; conditions: HEK293, 24 hours
# [5] = system: AID target protein expressed from the ADH promoter; conditions: cited from earlier work
# GluRIIA-CFP-SMASh = GluRIIA-CFP-SMASh (Hepatitis C virus genotype 1a, UniProt P27958, T1080A/T1100M/T1173A); type: cell-based, Drosophila; conditions: HEK293, 24 hours
# HEK293 cells = assay: protein half-life by SMASh shutoff, immunoblotting and mathematical model
compound,measurement,setting,value
CC(C)C[C@@H](C=O)NC(=O)[C@H](CC(C)C)NC(=O)[C@H](CC(C)C)NC(=O)OCc1ccccc1 [MG132] (Cbz-Leu-Leu-Leu-aldehyde),YFP-NS3pro-NS4A protein levels,YFP-NS3pro-NS4A,modestly increased
C=C[C@@H]1C[C@]1(NC(=O)[C@@H]1C[C@@H](Oc2ncc(OC)c3ccc(Cl)cc23)CN1C(=O)[C@@H](NC(=O)OC(C)(C)C)C(C)(C)C)C(=O)NS(=O)(=O)C1CC1 [asunaprevir],"YFP expression, episomal, GPD promoter",SMASh-YFP or YFP-SMASh [1]; 3 μM asunaprevir,undetectable levels; also recorded: completely suppressed
same,"YFP expression, YFP-SMASh integrated into yeast chromosome, GPD promoter","SMASh-YFP or YFP-SMASh [1]; ASV, immunoblot",shutoff
same,YFP fluorescence in living cells,SMASh-YFP or YFP-SMASh [2],nearly undetectable
same,"cleaved and full-length YFP protein, immunoblot",SMASh-YFP or YFP-SMASh [2]; N-terminal or C-terminal fusions,significantly reduced
same,activity against a panel of cellular proteases,[3],no activity
same,concentration that can be maintained in plasma and organs for hours,[4],0.15 µM
same,growth of YSH1-SMASh yeast,YSH1-SMASh yeast,suppressed
same,growth of SEC14-SMASh yeast,SEC14-SMASh yeast,complete growth inhibition
same,suppression of EGFP fluorescence compared to the untreated case,"MeV-EGFP-P-SMASh; 3 μM ASV, 3 days post-transfection (so in the source), Vero cells",97.3%
same,"P production in virus-infected cells, immunoblotting",MeV-EGFP-P-SMASh; presence of asunaprevir,efficiently inhibited
same,EGFP expression and formation of syncytia,"MeV-EGFP-P-SMASh; presence of asunaprevir, Vero cells, 72 hours",completely abolished
same,EGFP expression and formation of syncytia by parental virus,MeV-EGFP,unaffected
same,"Arc protein suppression, 6-aa linker with the NS5A/5B substrate",SMASh-Arc,complete protein suppression
same,"Arc protein suppression, 18-aa linker with the NS5A/5B substrate",SMASh-Arc,incomplete
O=C(O)Cc1c[nH]c2ccccc12 [auxin],concentration required for AID to degrade a target protein,[5],1000 µM
CO/C1=C\C(C)=C\[C@@H](C)[C@@H](O)[C@@H](C)C/C(C)=C/C=C/[C@H](OC)[C@@H]([C@@H](C)[C@@H](O)[C@H](C)[C@@]2(O)C[C@@H](O)[C@H](C)[C@@H](C(C)C)O2)OC1=O [bafilomycin A1],YFP-NS3pro-NS4A protein levels,YFP-NS3pro-NS4A,modestly increased
CC(C)C[C@H](NC(=O)[C@H](Cc1ccccc1)NC(=O)c1cnccn1)B(O)O [bortezomib],YFP-NS3pro-NS4A protein levels,YFP-NS3pro-NS4A,modestly increased
CCN(CC)CCCC(C)Nc1ccnc2cc(Cl)ccc12 (centres unmarked) [chloroquine],YFP-NS3pro-NS4A protein levels,YFP-NS3pro-NS4A,modestly increased
COc1ccc2c(O[C@@H]3C[C@H]4C(=O)N[C@]5(C(=O)O)C[C@H]5/C=C\CCCCC[C@H](NC(=O)OC5CCCC5)C(=O)N4C3)cc(-c3csc(NC(C)C)n3)nc2c1 [ciluprevir],GluRIIA expression,GluRIIA-CFP-SMASh,shutoff
"CYP21A2: short-lived protein, released from CYP21A2-SMASh by cleavage",acceleration of degradation by SMASh,HEK293 cells,9 fold
same,decay rate constant kdeg,HEK293 cells,8.67e-05 s⁻¹
same,production rate constant ksyn,HEK293 cells; 24-28 hours post-transfection,0.438 h⁻¹
